Here are results for 1 sequence from patent publication US9403873B2, “Peptides targeting receptor activator of nuclear factor-κB (RANK) and their applications” (UNIVERSITE DE NANTES, priority 2011, dated 2016).

Assay [1] deals with ovariectomized C57BL/6 mice. As to the kind of experiment: Ovariectomy-induced bone loss in mice, micro-CT of tibiae and L4 vertebrae. Conditions: 35 days. In kind it is in vivo, mouse. An excerpt:
Eight-week-old ovariectomized (OVX) female C57BL6 and non-ovariectomized control mice were purchased from Janvier (Le Genest Saint Ilsle, France). Mice were housed under pathogen-free conditions at the Experimental Therapy Unit (Faculty of Medicine, University of Nantes, France), and animal care and experimental protocols were approved by the French Ministry of Research and were done in accordance with the institutional guidelines of the French Ethical Committee and under the supervision of authorized investigators. After recovery from OVX surgery for 7 days and acclimation, the mice were randomly divided into treatment groups receiving daily subcutaneous injections of a peptide and a control group receiving daily injections of the vehicle (PBS) only. Non-ovariectomized or sham-operated mice were included in the studies as healthy controls. Three experimental protocols were established. Protocol 1: Ovariectomized mice received daily s.c. injections of 10 mg/kg body weight Pep8 (Pep8, n=8) or vehicle only (OVX, n=8). Non-ovariectomized (NOV, n=8) mice served as normal controls. Protocol 2: Ovariectomized mice were randomly divided into four groups (n=8), receiving daily treatments with pegylated Pep8 (Pep8-NPEG5) at 10 mg/kg or 2.5 mg/kg, or unpegylated Pep8 at a dose of 10 mg/kg/d, or the vehicle only. Sham-operated mice (n=5) served as healthy controls. Protocol 3: Ovariectomized mice receiving daily treatments with pegylated Pep8 (Pep8-NPEG8) at 10 mg/kg or 2.5 mg/kg, as described before, or unpegylated Pep8 at a lower dose of 2.5 mg/kg/d, or the vehicle only. Sham-operated mice (n=8) served as healthy controls.
During the experimental period, the body weight of the mice was monitored. […] After treatment for five weeks, mice were anesthetized with isoflurane (2%, 1 L/min) and sacrificed by cervical dislocation. Lumbar vertebrae and tibiae were collected for micro-CT analysis and stored at 4° C. in 4% paraformaldehyde until further analysis. Additionally, internal organs (heart, liver, lungs, kidneys, spleen, intestines and thymus) of some mice (n=3 per group) were harvested and stored for toxicity screening.
Analysis of architectural variables of tibiae and vertebrae of mice was performed using the high-resolution X-ray micro-CT system for small animal imaging SkyScan-1072 (SkyScan, Belgium). After scanning, the image data were transferred to a workstation and the proximal tibiae and the fourth lumbar vertebrae (L4) were rendered for 3-D display and calculation of the structural indices (Parfitt et al. 1987) using the SkyScan analysis system (CT-analyser, CT-volume, SkyScan). For trabecular bone parameters in tibiae, transverse CT slices were obtained in the region of interest in the axial direction from the trabecular bone ca. 0.1 mm below the growth plate to the mid-femur. Contours were defined and drawn close to the cortical bone. The trabecular bone was then removed and analyzed separately. Fifty slices (1 mm) at approximately […] distal to the growth plate of the proximal ends of the tibiae were used for analysis. […] The threshold level for the measurements was set at 55 for the analyses. The analysis of the specimens involved the following bone measurements: bone volume fraction (BV/TV, %), trabecular number (TbN), trabecular thickness (TbTh) and trabecular spacing (TbSp).

Assay [2] has as its system cathepsin K, TRAP and NFATc1 mRNA in CD14+ cells. As to the kind of experiment: Real-time RT-PCR of osteoclast marker genes in CD14+ cells. In kind it is cell-based, human. Conditions: CD14+ cells with M-CSF and RANKL; day 3 to day 11 after RANKL stimulation. Background: In qPCR the cycle at which signal appears reflects the starting amount.
Setting [3] is: 10 mg/kg/day s.c., vs vehicle-treated OVX mice.

“Also recorded” adds a separate entry of the source. Ends that are not written are not given here.

As for NVLKLCSGE [Pep8, NVLKLCSGE], the “protection against OVX-induced trabecular bone loss (μCT, tibiae)” value in assay [1] (2.5 mg/kg/d s.c.) is “less efficient”. The “trabecular BV/TV and TbN, tibiae” value in assay [1] (2.5 mg/kg/d, vs vehicle) is on record as “only slightly, but not significantly increasing”. Also, in assay [1] (10 mg/kg/d s.c.), the “protection against OVX-induced trabecular bone loss (μCT)” value is given as “prevented the loss of trabecular bone; also recorded: overall increase in trabecular bone density”. For the same sequence, in assay [1] (setting [3]), the “increase of TbN, proximal tibia” value is reported as 71%; the “increase of TbTh, proximal tibia” value was determined as 14%; the “increase of trabecular BV/TV, proximal tibia” value is recorded as 93%. The “TbS, proximal tibia” value in assay [1] (10 mg/kg/day s.c., vs vehicle-treated mice) is on record as “decline”. In assay [1] (10 mg/kg/day), the “TbN, lumbar vertebrae” value is “increased” and the “TbS, lumbar vertebrae” value is listed as “reduced”. In assay [1] (10 mg/kg/day, vs OVX control mice), the “TbTh, lumbar vertebrae” value is listed as “slightly, but not statistically significantly increased”. Further, the “vertebral trabecular BV/TV” value in assay [1] (lumbar vertebrae, 10 mg/kg/day) is reported as “lower in OVX than Pep8-treated mice”. Moreover, the “mRNA expression of cathepsin K, TRAP and NFATc1” value in assay [2] is listed as “inhibited the mRNA expression; also recorded: markedly reduced”.
